Source: the supplement of paper PMC10949913

Columns and labels:
Conditions in all cases: 48 h
[1] = test system: CU-ACC2; test: area under concentration-response curve (viability) (AUC (a.u.)); higher = less active
Method in brief: (§1)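 After 48 h of treatment with 23 nL of each library compound at 11 concentrations, three adrenocortical carcinoma cell lines in 1,536-well plates (500–1,000 cells/well, 5 µL medium) were given CellTiter-Glo for 15 minutes at room temperature. Luminescence was then read and normalised per plate to vehicle and empty-well controls. AC50 and area under the curve were drawn from fitted concentration-response curves of inhibitory or non-responding classes only.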

[2] = test system: CU-ACC1; test: as above
Method in brief: as §1

[3] = test system: NCI-H295R; test: as above
Method in brief: as §1

[4] = test system: CU-ACC1; test: AC50 viability; higher = less potent
Method in brief: as §1

[5] = test system: NCI-H295R; test: AC50 viability; higher = less potent
Method in brief: as §1

Compound | area under concentration-response curve [1] | area under concentration-response curve [2] | area under concentration-response curve [3] | AC50 viability [4] [µM] | AC50 viability [5] [µM]
CC/1=C/C(=O)N(O)/C(=C1)C2CCCCC2 | 570 | 505 | 528 | 10.5 | 7.42
NC(=O)c1ccccc1Nc1ccnc(Nc2cccc(O)c2)n1 | 553 | 465 | 462 | 20.9 | 2.63
Cn1c(=O)n(-c2ccc(C(C)(C)C#N)cc2)c2c3cc(-c4cnc5ccccc5c4)ccc3ncc21 | 623 | 471 | 510 | 0.108 | 0.171
OC(c1cc(C(F)(F)F)nc2c(C(F)(F)F)cccc12)C1CCCCN1 (stereo unspecified) | 619 | 501 | 527 | 23.5 | 20.9
COc1ccc(C[C@@H](C)[C@@H](C)Cc2ccc(OC)c(OC)c2)cc1OC | 536 | 452 | 480 | 4.68 | 20.9
COc1cc2ncnc(Nc3cccc(Cl)c3)c2cc1OC | 610 | 558 | 562 | 13.2 | 20.9
C[C@@H]1CN(Cc2ccc(F)cc2)CCN1C(=O)COc1ccc(Cl)cc1NC(N)=O | 522 | 412 | 465 | 1.86 | 0.166
Cc1ccc(NC(=O)c2ccc(CN3CCN(C)CC3)cc2)cc1Nc1nccc(-c2cccnc2)n1 | – | 484 | 469 | 23.5 | 20.9
Cc1ccc([S+](=O)([O-])Cc2nc(-c3ccc(C(=O)NCc4cccnc4)cc3)oc2C)cc1 | 402 | 290 | 379 | 0.0742 | 0.263
COC1(c2sc3c(N4CCOCC4)nc(-c4cnc(N)nc4)nc3c2C)COC1 | 374 | 287 | 322 | 0.525 | 0.372
O=C(CCCCCCC(=O)Nc1cccnc1)NO | 589 | 489 | 533 | 9.34 | 13.2
COc1ccc(Cl)c(Nc2ncnc3cc(OCC4CCN(C)CC4)c(OC)cc23)c1 | – | 513 | 581 | 23.5 | 26.3
C[C@H]1O[C@H](C[C@H](O)[C@@H]1O)O[C@H]2[C@@H](O)C[C@@H](O[C@@H]2C)O[C@H]3[C@@H](O)C[C@@H](O[C@@H]3C)O[C@H]4CC[C@@]5(C)[C@H](CC[C@@H]6[C@@H]5C[C@@H](O)[C@]7(C)[C@H](CC[C@]67O)C/8=C/C(=O)OC8)C4 | 349 | 255 | 269 | 0.0372 | 0.118
ClC1=CC=C(CCCOC/2=N/NC(=O)C(=C2NCC3=CN=CC=C3)/Br)C=C1 | – | 358 | 457 | 3.72 | 10.5
CC(C)C(=O)Nc1ncc(-c2cc(C(F)F)nn2-c2c(Cl)cccc2Cl)s1 | – | 472 | 507 | 23.5 | 23.5
CN(C)C(=O)C(CCN1CCC(O)(c2ccc(Cl)cc2)CC1)(c1ccccc1)c1ccccc1 | – | 506 | 549 | 16.6 | 20.9
COc1cc(N2CCN(C)CC2)ccc1Nc1ncc2c(n1)N(C)c1ccccc1C(=O)N2 | – | 479 | 492 | 16.6 | 23.5
[2H]C([2H])(Nc1nc(-c2ccccc2C([2H])(C([2H])([2H])[2H])C([2H])([2H])[2H])ncc1C)c1ccc(-n2ccnn2)cc1 | – | 469 | 531 | 16.6 | 9.34
Cc1c(C(=O)Nc2ccc(N3C[C@@H](C)O[C@@H](C)C3)nc2)cccc1-c1ccc(OC(F)(F)F)cc1 | – | 519 | 572 | 18.6 | 20.9
O=C(Nc1cccnn1)N1CCC(=Cc2cccc(Oc3ccc(C(F)(F)F)cn3)c2)CC1 | – | 361 | 445 | 20.9 | 20.9
NCC1CCN(c2nccc(-c3ccc4ccccc4c3)n2)CC1 | – | 477 | 492 | 23.5 | 16.6
COCc1c(-c2ccc(NC(=O)Nc3cc(C(F)(F)F)ccc3F)c(F)c2)c2c(N)ncnn2c1CN1CCOCC1 | – | 342 | 363 | 8.33 | 6.61
CCC(=O)O[C@@]1([C@@H](C)C[C@H]2[C@@H]3CCC/4=C/C(=O)/C=C\[C@]4(C)[C@@]3(F)[C@@H](O)C[C@]12C)C(=O)CCl | – | 475 | 503 | 20.9 | 20.9
CN1CCN(c2ncc(-c3cc(Cl)cc(Cl)c3Cl)c(N)n2)CC1 | – | 405 | 487 | 14.8 | 11.8
O=[N+]([O-])c1ccc(O)c2ncccc12 | – | 482 | 483 | 11.8 | 11.8
NC(=O)c1cccc(-c2cc(Nc3ccc(OC(F)(F)F)cc3)ncn2)c1 | – | 488 | 538 | 16.6 | 20.9
NC(=O)c1ccc2nc(-c3ccc(C4(N)CCC4)cc3)c(-c3ccccc3)n2n1 | – | 483 | 465 | 18.6 | 16.6
Clc1ccc(C(c2ccccc2Cl)C(Cl)Cl)cc1 (stereo unspecified) | – | 426 | 432 | 18.6 | 20.9
C[C@@H]\1COC(=N1)\NC2=CC3=C(C=C2)N=CN=C3NC4=CC(=C(OCC5=NC=CS5)C=C4)Cl | – | 509 | 522 | 20.9 | 41.7
Cc1cccc(-c2n[nH]cc2-c2ccc(F)c(-c3cnn(CCO)c3)c2)n1 | – | 284 | 308 | 5.25 | 13.2
